The data set can be described thus: Metabolic stability in mouse liver microsomes. As to conditions: pooled mouse liver microsomes, 0.5 mg/mL microsomes, NADPH. In kind it is in vitro ADME. Here is the method:
The metabolic stability of testosterone, verapamil and ketoconazole was determined in parallel to confirm the enzymatic activity of mouse liver microsomes. For combination experiments, cobicistat was added to the incubation mixture together with test compounds. […] Concentration of the remaining test compound at the different time points was analyzed by HPLC-MS/MS (Vanquish Flex coupled to a TSQ Altis Plus, Thermo Fisher, Dreieich, Germany) and used to determine half-life (t1/2).
(In general: Microsomes from liver hold many membrane-bound enzymes, among them those of drug oxidation.)

Bounds are passed on as bounds.

One compound from article PMC13267113 (npj Drug Discovery, 2025) can be followed below.

For `CO[C@H](C(N)=O)[C@H](NC(=O)c1ccc(NC(=O)c2ccc(C#N)cc2)cc1)C(=O)Nc1ccc(C(=O)Nc2ccc(C(=O)Nc3ccc(C(=O)O)cc3)c(O)c2OC(C)C)cc1` [CN-861-2], for the setting “read-out: MLM Clint”, the microsomal CLint at 1 μM was less than 11.6 µL/min/mg. Further, the half-life at 1 µM (read-out: MLM t1/2) is more than 2 h.
